Key:
[1] = test system: HepG2 cells; assay: Fatty acid-induced intracellular fat accumulation (BODIPY fluorescence) in non-alcoholic fatty liver cell model; type: cell-based, human
Method: The human liver-derived HepG2 cell line was purchased from American Type Culture Collection (ATCC, VA, USA). HepG2 cells were cultured at 37° C. in an incubator supplied with 5% carbon dioxide. For the cell culture, MEM (Gibco Cat No. 11095-098) medium containing 10% fetal bovine serum (FBS) and 1% antibiotics (Penicillin-streptomycin, Gibco) was used. HepG2 cells were seeded in a 96-well plate at 1×10^4 cells/well, and, after 24 hours, treated with 150 μM oleic acid (Sodium oleate, Sigma, USA) for 24 hours to increase intracellular fat accumulation. The drug treated group was treated 1 hour before being treated with oleic acid. Upon completion of the experiment, the cells were fixed with 4% formaldehyde for 10 minutes and washed twice with PBS buffer. A solution containing […] (Invitrogen Corporation, NY, USA) was added and cultured at room temperature for 30 minutes. At this time, the final concentration of the fluorescent dye BODIPY was 2 μg/ml. After completion of the reaction, the plate was washed three times with PBS buffer, and, when only the minimum amount of PBS remained, the fluorescence was quantified by using a SpectraMax M4 microplate reader (Molecular Devices, USA). At this time, the excitation wavelength was 485 nm, and the emission was 525 nm. The experiment was performed by blocking light with aluminum foil to allow in as little light as possible.

[2] = test system: non-alcoholic steatohepatitis (NASH) animal models; assay: Fibrosis marker hydroxyproline in liver tissue of NASH animal model; type: in vivo, C57bl/6J mice; conditions: NASH mice, 8 weeks, Chiisanogenin 50 mg/kg
Method: (§1) 8-week-old male C57bl/6J mice were fed a NASH-inducing diet (#A06071302 diet) for 8 weeks, and, from the 9th week, single samples (i.e., Garcinia extract, Acanthopanax extract or Chiisanogenin) and a composite sample thereof were administered for 8 weeks, together with NASH dietary feed (#A06071302 diet). To verify the efficacy of each of the Garcinia extract (notified raw material, 60% HCA) and Chiisanogenin or their mixture at each non-clinical administration concentration by using a non-alcoholic steatohepatitis (NASH)-induced animal model, changes of aspartate aminotransferase (AST) and alanine aminotransferase (ALT), which are biomarkers of liver tissue damage, in the serum of the non-alcoholic steatohepatitis (NASH) C57bl/6J mouse models caused by feeding NASH-inducing dietary feed (#A06071302) were observed, and the results are shown in Tables 11 and 12, respectively. In addition, the results of observing changes of hydroxyproline, which is a biomarker of liver fibrosis, in liver tissues are shown in Table 13.

[3] = test system: non-alcoholic steatohepatitis (NASH) animal models; assay: AST in serum of non-alcoholic steatohepatitis (NASH) animal model; type: in vivo, C57bl/6J mice; conditions: NASH mice, 8 weeks, Chiisanogenin 50 mg/kg
Method: as §1

[4] = test system: non-alcoholic steatohepatitis (NASH) animal models; assay: ALT in serum of non-alcoholic steatohepatitis (NASH) animal model; type: in vivo, C57bl/6J mice; conditions: NASH mice, 8 weeks, Chiisanogenin 50 mg/kg
Method: as §1

[5] = test system: HepG2 cells; assay: Cell viability (CCK-8) of fatty acid-induced non-alcoholic fatty liver cell model; type: cell-based, human; conditions: Table 6, Garcinia extract 0 + Chiisanogenin 6 μg/ml
Method: The human liver-derived HepG2 cell line was purchased from American Type Culture Collection (ATCC, VA, USA). HepG2 cells were cultured at 37° C. in an incubator supplied with 5% carbon dioxide. For the cell culture, MEM (Gibco Cat No. 11095-098) medium containing 10% fetal bovine serum (FBS) and 1% antibiotics (Penicillin-streptomycin, Gibco) was used. HepG2 cells were seeded in a 96-well plate at 1×10^4 cells/well, and, after 24 hours, treated with 150 μM oleic acid (Sodium oleate, Sigma, USA) for 24 hours to increase intracellular fat accumulation. The drug treated group was treated 1 hour before being treated with oleic acid. […] After completion of the reaction, the plate was washed three times with PBS buffer, and, when only the minimum amount of PBS remained, the fluorescence was quantified by using a SpectraMax M4 microplate reader (Molecular Devices, USA). […]
In the experimental conditions of the present invention, cell viability was determined by mixing 90 μl of medium with 10 μl of CCK-8 solution, adding 100 μl per well and reacting the mixture for at least 30 minutes to 1 hour, followed by measurement of the absorbance at 450 nm, as described in the CCK-8 (Dojindo) kit. The cell viability was calculated according to Equation 1 below, taking the negative control as 100%, and the results are shown in Tables 8 and 9 below.

In the case of `C=C(C)[C@@H]1CC[C@]2(C(=O)O)CC[C@]3(C)[C@H](C[C@H]4OC(=O)C[C@@H](O)[C@]5(C)[C@@H]4[C@@]3(C)CC[C@H]5C(=C)C)[C@@H]12` [Chiisanogenin], the inhibition at 6 µg/mL ([1]; Homo sapiens, HepG2, Table 4, fat accumulation, Garcinia extract 0 + Chiisanogenin 6 μg/ml, read-out: Inhibition rate (%)) is reported as 80%, the “TG (% relative to positive control group, mean ± deviation)” value ([1]; Table 4, Garcinia extract 0 + Chiisanogenin 6 μg/ml) is reported as 64 ± 7.9 % and the “Hydroxyproline in liver tissues (% relative to positive control group, mean ± deviation)” value [2] is reported as 69 ± 28%. For the same molecule, the “Inhibition rate (%, mean ± deviation)” value ([2]; liver hydroxyproline) was 26 ± 11.9%, the “AST in serum (% relative to positive control group, mean ± deviation)” value [3] was 97 ± 15.4% and the “Inhibition rate (%, mean ± deviation)” value ([3]; serum AST) was 4 ± 19.8%. For the same molecule, the “ALT in serum (% relative to positive control group, mean ± deviation)” value [4] was 89 ± 14.6%, the “Inhibition rate (%, mean ± deviation)” value ([4]; serum ALT) was 12 ± 5.1% and the “Cell viability (%, mean ± deviation)” value [5] was 105 ± 13.7%.

Reference: patent US20240261356A1, “COMPOSITION CONTAINING ACANTHOPANAX EXTRACT AND GARCINIA CAMBOGIA EXTRACT OR COMPOUND ISOLATED THEREFROM AS ACTIVE INGREDIENT FOR PREVENTION OR TREATMENT OF LIVER DISEASE” (KOREA RESEARCH INSTITUTE OF BIOSCIENCE AND BIOTECHNOLOGY, priority 2021, published 2024)
